Laboratory results reported in patent US20250270180A1, “MEK INHIBITORS AND THERAPEUTIC USES THEREOF” (Immuneering Corporation, priority 2020, published 2025).

Tested on: A549 pERK
Experiment: A549-pERK, 2 h (quantitative Western, Jess)
Assay type: cell-based
Settings: Homo sapiens, A549, 2 h, phospho:total ratio normalized to DMSO control; for activity at 0.01 µM: 10 nM
Procedure: A549 or […] cells were treated in duplicate for two hours with compounds at varying concentrations. After two hours, the cells were lysed, snap frozen, and stored at −80° C. After storage, the lysate was quantified with the Bradford assay. Before the lysates were prepared to run on the Jess, the lysates were diluted to 1 mg/mL for pERK analysis and 1.5 mg/mL pMEK analysis using quantitative Western blotting. ERK and MEK phosphorylation levels were estimated by taking the ratio of phospho-protein to total protein and normalizing to the DMSO control. The results of this study are described in Tables 14-16.

| Structure (SMILES) | activity at 0.01 µM [%] | activity at 10 µM [%] |
| --- | --- | --- |
| CNS(=O)(=O)Nc1cccc(Cc2c(CN3CC(N(C)C)C3)c3ccc(OC(=O)N(C)C)cc3oc2=O)c1F [Compound 154] | 64 |  |
| CNS(=O)(=O)Nc1cccc(Cc2c(CNc3ccnn3C)c3ccc(OC(=O)N(C)C)cc3oc2=O)c1F [Compound 96] | 102 |  |
| CNS(=O)(=O)Nc1cccc(Cc2c(CNCCCCO)c3ccc(OC(=O)N(C)C)cc3oc2=O)c1F [Compound 71] | 99.4 |  |
| CN(C)C(=O)Oc1ccc2c(CN3CCC3)c(Cc3ccnc(NS(=O)(=O)C4CC4)c3F)c(=O)oc2c1 [Compound 155] | 84.9 |  |
| CNS(=O)(=O)Nc1cccc(Cc2c(CNC(=O)C(C)(C)O)c3ccc(OC(=O)N(C)C)cc3oc2=O)c1F [Compound 212] | 100 | 13 |
| CNS(=O)(=O)Nc1cccc(Cc2c(CNC(=O)c3c[nH]nn3)c3ccc(OC(=O)N(C)C)cc3oc2=O)c1F [Compound 211] | 121 | 70.8 |
| CNS(=O)(=O)Nc1cccc(Cc2c(CN3CCN(C(=O)c4ccccc4)CC3)c3ccc(OC(=O)N(C)C)cc3oc2=O)c1F [Compound 65] | 100 |  |
| CNC1CN(Cc2c(Cc3cccc(NS(=O)(=O)NC)c3F)c(=O)oc3cc(OC(=O)N(C)C)ccc23)C1 [Compound 164] | 102 |  |
| CNS(=O)(=O)Nc1cccc(Cc2c(CC(=O)Nc3ccn[nH]3)c3ccc(OC(=O)N(C)C)cc3oc2=O)c1F [Compound 202] | 119 |  |
| CNS(=O)(=O)Nc1cccc(Cc2c(CN(C)C)c3ccc(OC(=O)N4CCN(C)CC4)cc3oc2=O)c1F [Compound 127] | 110 |  |
| CNS(=O)(=O)Nc1cccc(Cc2c(CNc3ccc(OC)nc3)c3ccc(OC(=O)N(C)C)cc3oc2=O)c1F [Compound 193] | 90.7 |  |
| CNS(=O)(=O)Nc1cccc(Cc2c(CNc3nccs3)c3ccc(OC(=O)N(C)C)cc3oc2=O)c1F [Compound 94] | 93.5 |  |
| C#CCN(C)Cc1c(Cc2cccc(NS(=O)(=O)NC)c2F)c(=O)oc2cc(OC(=O)N(C)C)ccc12 [Compound 76] | 62.1 |  |
| CNS(=O)(=O)Nc1cccc(Cc2c(CN3CC4(COC4)C3)c3ccc(OC(=O)N(C)C)cc3oc2=O)c1F [Compound 152] | 70.5 |  |
| CNS(=O)(=O)Nc1cccc(Cc2c(CNCc3ccco3)c3ccc(OC(=O)N(C)C)cc3oc2=O)c1F [Compound 56] | 92.9 |  |
| CNS(=O)(=O)Nc1cccc(Cc2c(CNC(=O)C(C)C)c3ccc(OC(=O)N(C)C)cc3oc2=O)c1F [Compound 208] | 105 | 23.6 |
| CNS(=O)(=O)Nc1cccc(Cc2c(CN3CC(C(N)=O)C3)c3ccc(OC(=O)N(C)C)cc3oc2=O)c1F [Compound 173] | 97.7 |  |
| CNS(=O)(=O)Nc1cccc(Cc2c(CNCC(=O)N(C)C)c3ccc(OC(=O)N(C)C)cc3oc2=O)c1F [Compound 57] | 106 | 7.33 |
| CNS(=O)(=O)Nc1cccc(Cc2c(CN(C)c3cccc(Cl)c3)c3ccc(OC(=O)N(C)C)cc3oc2=O)c1F [Compound 95] | 80.2 |  |
| CNS(=O)(=O)Nc1cccc(Cc2c(CC(=O)N3CCN(C)CC3)c3ccc(OC(=O)N(C)C)cc3oc2=O)c1F [Compound 195] | 113 |  |
| CNS(=O)(=O)Nc1nccc(Cc2c(CN3CC(F)(F)C3)c3ccc(OC(=O)N(C)C)cc3oc2=O)c1F [Compound 149] | 69.1 |  |
| CNS(=O)(=O)Nc1cccc(Cc2c(CO)c3ccc(OC(=O)N(C)C)cc3oc2=O)c1F [Compound 180] | 75 |  |
| CNS(=O)(=O)Nc1cccc(Cc2c(CNCC3CC3)c3ccc(OC(=O)N(C)C)cc3oc2=O)c1F [Compound 26] | 94.2 |  |
| CNS(=O)(=O)Nc1cccc(Cc2c(CNCCN(C)C)c3ccc(OC(=O)N(C)C)cc3oc2=O)c1F [Compound 58] | 98.7 |  |
| CNS(=O)(=O)Nc1cccc(Cc2c(CNC(C)c3ccccc3)c3ccc(OC(=O)N(C)C)cc3oc2=O)c1F (centres unmarked) [Compound 63] | 88 |  |
